Reference: publication PMC6944674, “Comparison of the Hepatotoxic Potential of Two Treatments for Autosomal-Dominant Polycystic Kidney DiseaseUsing Quantitative Systems Toxicology Modeling” (Pharmaceutical Research, 2020)
Where “and” joins values, the source holds several entries; their conditions need not be identical. Equal entries are not always repeated. Where two headings read alike, the source gives them in different places.

Tests used:
human BSEP [1] = target: T1, human BSEP (Homo sapiens, UniProt O95342); test: BSEP vesicular transport inhibition assay (taurocholate, HEK-293 cell membrane vesicles); format: biochemical
T1 construct: host or cells: HEK-293 cell membrane vesicles
Procedure: (§1) The functional impact of lixivaptan, its three metabolites and tolvaptan on the human ABC (efflux) transporters BSEP and MRP3 and MRP4 was assessed for this project using in vitro vesicular transport inhibition assays. The inhibition of the human SLC (uptake) transporter NTCP was assessed using CHO cells stably expressing human NTCP. The concentration ranges used for the five test articles was determined based on the solubility of each compound in the assay solution. All transporter inhibition assays were conducted in triplicate by Solvo Biotechnology (Szeged, Hungary).
For the simulation of bile acid transporter inhibition by lixivaptan in DILIsym, parameter values were selected for BSEP canalicular transport, basolateral transport (encompassing both MRP3 and MRP4), and NTCP transport. The parameter values for each include the inhibition constant, defined as the IC50 or Ki value, and the inhibition type, defined as competitive, non-competitive, or mixed inhibition.
In vesicular transport inhibition assays, lixivaptan and its metabolites each inhibited BSEP-mediated probe substrate accumulation (Figure B1) and MRP4-mediated probe substrate accumulation (Figure B2) dose-dependently.
Figure B1. […] See Appendix A for more details.

human NTCP = target: T2, human NTCP (Homo sapiens, UniProt Q14973); test: NTCP inhibition in CHO cells stably expressing human NTCP (taurocholate); format: cell-based; details: CHO cells
T2 sequence (Q14973 1-349): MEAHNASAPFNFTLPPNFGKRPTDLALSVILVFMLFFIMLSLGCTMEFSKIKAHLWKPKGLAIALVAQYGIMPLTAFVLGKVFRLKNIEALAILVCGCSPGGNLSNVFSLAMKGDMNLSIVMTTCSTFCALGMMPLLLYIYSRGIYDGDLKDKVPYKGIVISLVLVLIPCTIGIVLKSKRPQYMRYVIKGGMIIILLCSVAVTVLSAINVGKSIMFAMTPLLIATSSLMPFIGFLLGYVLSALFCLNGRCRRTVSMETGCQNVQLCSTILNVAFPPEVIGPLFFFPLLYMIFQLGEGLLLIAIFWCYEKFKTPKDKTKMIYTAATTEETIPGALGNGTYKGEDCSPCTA
Procedure: as §1
Figure B4. […] See Appendix A for more details.

human MRP3 = target: T3, human MRP3 (Homo sapiens, UniProt O15438); test: MRP3 vesicular transport inhibition assay (E217βG, HEK-293 cell membrane vesicles); format: biochemical
T3 construct: host or cells: HEK-293 cell membrane vesicles
Procedure: as §1
Figure B3. […] See Appendix A for more details.

HepG2 cells [2] = test: Seahorse XFe96 cellular respiration assay (oxygen consumption rate); format: cell-based; details: 24 hour incubation
Procedure: To assess the potential effect of the five test articles on mitochondrial function, cellular respiration assays using a Seahorse XFe96 Flux Analyzer were conducted by Cyprotex (Macclesfield, UK) and overseen by the authors. HepG2 cells were incubated with each test article for 1 or 24 hours and tested for an effect on cellular respiration by measuring the oxygen consumption rate (OCR). Each study was conducted in triplicate. Importantly, the 1 hour culture was conducted in the absence of serum (i.e. no serum protein binding) as is standard for the Seahorse Analyzer assay conditions.

[3] = tested on: mitochondrial electron transport chain; test: ETC inhibition parameter from MITOsym simulation of OCR data, translated to DILIsym; details: calculated from 24 h HepG2 OCR data and measured intracellular concentrations; lower = higher risk
Description: The parameters calculated in this manner were then translated to DILIsym parameters using a conversion factor based on the relative activity of rotenone in the in vitro vs. in vivo environment (7).

[4] = Intracellular concentration by LC/MS/MS in HepG2 cultures parallel to Seahorse assay; format: in vitro ADME; details: human, HepG2 cells, Seahorse medium
Procedure: (§2) The concentration of test compound at the site of action (i.e. hepatocytes) has been identified as highly influential in the selection of parameter values (7). To assess intracellular concentrations of the five test articles, identical HepG2 cultures were established in parallel and cell lysate concentrations of the test articles were measured by LC/MS/MS analysis. Intracellular concentrations of the test articles were calculated by correcting for cell lysate volume (100 µL) and the volume of HepG2 cells in each well, which was calculated by multiplying cell count per well by cellular volume per cell (2.85 pl/cell). One independent study in duplicate was conducted to assess intracellular concentrations of the test articles for Seahorse studies.

HepG2 cells [5] = test: as above; format: in vitro ADME; details: Seahorse medium; for CIntracellular Fraction: cell lysate; for CHepatocyte: corrected for lysate and HepG2 cell volume
Procedure: as §2

human BSEP [6] = target: T1, human BSEP; parameters: method as in earlier work; details: ref (7); read-out: BSEP Ki used in DILIsym simulations previously; cited from earlier work
[7] = tested on: mitochondrial electron transport chain; details: intracellular concentrations not measured; cited from earlier work
simulated individuals = tested on: simulated individuals; parameters: method as in PMID 27655350; details: 24 weeks, cited from earlier work; for Simulated ALT >3X ULN, frequency: 90/30 mg split daily dosing
[8] = 90/30 mg, cited from earlier work

T1 sequence (O95342 whole entry): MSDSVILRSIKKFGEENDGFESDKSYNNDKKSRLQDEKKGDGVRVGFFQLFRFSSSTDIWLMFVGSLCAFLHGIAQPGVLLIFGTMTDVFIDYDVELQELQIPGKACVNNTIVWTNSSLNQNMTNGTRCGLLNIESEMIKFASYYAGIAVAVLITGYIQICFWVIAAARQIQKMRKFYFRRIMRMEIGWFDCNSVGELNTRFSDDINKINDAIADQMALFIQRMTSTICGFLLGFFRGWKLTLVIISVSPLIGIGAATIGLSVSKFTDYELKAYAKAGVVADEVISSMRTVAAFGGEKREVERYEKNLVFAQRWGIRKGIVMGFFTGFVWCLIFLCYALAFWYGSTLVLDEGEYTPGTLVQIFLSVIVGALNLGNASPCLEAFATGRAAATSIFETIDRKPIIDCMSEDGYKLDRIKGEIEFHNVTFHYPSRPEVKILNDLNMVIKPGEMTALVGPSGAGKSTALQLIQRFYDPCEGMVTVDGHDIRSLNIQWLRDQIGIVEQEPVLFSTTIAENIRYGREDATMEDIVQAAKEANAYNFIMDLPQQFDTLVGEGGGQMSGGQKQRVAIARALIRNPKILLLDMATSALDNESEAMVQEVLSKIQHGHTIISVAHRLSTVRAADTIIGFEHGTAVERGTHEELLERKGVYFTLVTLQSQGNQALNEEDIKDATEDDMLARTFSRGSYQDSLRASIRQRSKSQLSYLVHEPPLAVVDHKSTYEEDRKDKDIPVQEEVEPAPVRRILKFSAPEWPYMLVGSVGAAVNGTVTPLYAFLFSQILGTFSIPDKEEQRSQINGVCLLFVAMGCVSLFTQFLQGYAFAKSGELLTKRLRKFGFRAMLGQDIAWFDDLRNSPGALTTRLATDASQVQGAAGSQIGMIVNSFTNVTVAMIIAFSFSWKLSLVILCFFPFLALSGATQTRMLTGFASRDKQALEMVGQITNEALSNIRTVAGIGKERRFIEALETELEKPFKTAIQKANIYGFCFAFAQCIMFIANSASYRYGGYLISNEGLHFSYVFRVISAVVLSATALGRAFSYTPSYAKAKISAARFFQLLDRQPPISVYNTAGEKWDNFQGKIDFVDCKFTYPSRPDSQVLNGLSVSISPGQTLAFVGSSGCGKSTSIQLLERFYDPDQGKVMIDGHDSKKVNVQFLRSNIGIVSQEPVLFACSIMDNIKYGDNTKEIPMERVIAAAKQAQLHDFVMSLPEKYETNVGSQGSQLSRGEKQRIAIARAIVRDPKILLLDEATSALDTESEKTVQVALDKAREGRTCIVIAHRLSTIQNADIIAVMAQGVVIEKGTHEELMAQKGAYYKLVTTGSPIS
T3 sequence (O15438 whole entry): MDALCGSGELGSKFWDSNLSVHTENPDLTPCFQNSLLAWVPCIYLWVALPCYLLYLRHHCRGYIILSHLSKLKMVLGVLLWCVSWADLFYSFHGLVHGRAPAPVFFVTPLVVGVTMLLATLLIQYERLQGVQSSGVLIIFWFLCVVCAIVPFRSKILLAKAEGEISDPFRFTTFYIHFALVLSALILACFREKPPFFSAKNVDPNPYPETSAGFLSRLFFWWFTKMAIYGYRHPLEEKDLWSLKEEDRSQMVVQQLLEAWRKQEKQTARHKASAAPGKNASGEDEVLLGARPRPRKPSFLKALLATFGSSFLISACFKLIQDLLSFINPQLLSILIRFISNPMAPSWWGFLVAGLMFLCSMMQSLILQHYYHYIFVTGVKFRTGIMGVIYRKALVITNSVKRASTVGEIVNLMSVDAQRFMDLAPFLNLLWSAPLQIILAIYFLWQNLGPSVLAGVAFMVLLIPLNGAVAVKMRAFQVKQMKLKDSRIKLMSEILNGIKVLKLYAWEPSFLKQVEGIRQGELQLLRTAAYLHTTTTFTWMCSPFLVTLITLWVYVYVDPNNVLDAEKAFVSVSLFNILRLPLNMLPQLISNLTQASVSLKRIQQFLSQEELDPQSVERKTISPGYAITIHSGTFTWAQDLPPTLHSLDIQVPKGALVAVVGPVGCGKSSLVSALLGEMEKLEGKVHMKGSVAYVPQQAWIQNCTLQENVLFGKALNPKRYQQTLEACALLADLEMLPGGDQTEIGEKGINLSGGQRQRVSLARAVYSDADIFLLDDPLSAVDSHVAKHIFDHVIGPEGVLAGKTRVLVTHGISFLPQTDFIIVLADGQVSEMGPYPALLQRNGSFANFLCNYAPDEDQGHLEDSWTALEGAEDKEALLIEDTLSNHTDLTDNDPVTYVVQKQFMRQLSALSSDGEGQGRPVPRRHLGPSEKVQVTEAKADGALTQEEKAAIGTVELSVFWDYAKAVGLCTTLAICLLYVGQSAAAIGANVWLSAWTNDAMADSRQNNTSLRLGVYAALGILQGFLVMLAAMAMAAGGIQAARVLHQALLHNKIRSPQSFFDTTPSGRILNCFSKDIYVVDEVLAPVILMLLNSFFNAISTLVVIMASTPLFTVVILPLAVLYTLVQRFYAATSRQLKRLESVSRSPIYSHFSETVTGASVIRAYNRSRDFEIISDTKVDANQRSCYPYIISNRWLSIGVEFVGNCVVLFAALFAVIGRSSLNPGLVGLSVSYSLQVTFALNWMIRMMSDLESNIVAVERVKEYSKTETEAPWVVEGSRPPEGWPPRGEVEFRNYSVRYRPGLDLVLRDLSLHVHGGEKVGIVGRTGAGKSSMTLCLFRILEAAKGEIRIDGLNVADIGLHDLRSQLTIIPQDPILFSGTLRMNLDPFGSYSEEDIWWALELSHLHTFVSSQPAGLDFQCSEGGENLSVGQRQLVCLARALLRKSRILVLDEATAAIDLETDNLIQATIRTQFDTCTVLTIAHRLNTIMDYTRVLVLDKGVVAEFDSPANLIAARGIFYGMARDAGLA

Cc1ccccc1C(=O)Nc1ccc(C(=O)N2CCCC(O)c3cc(Cl)ccc32)c(C)c1 (centres unmarked) [Tolvaptan, tolvaptan, reference compound]
IC50 (human BSEP [1]; read-out: BSEP inhibition constant (IC50)): 16.5 µM
inhibition of BSEP-mediated probe substrate accumulation (human BSEP [1]; vesicular transport inhibition assay): inhibited
inhibition of NTCP-mediated probe substrate accumulation (human NTCP): inhibited
inhibition of MRP3-mediated probe substrate accumulation (human MRP3): inhibited
effect on HepG2 oxygen consumption rate (mitochondrial respiration) (HepG2 cells [2]): reduce the HepG2 OCR in a dose-dependent manner
Coefficient for ETC inhibition (DILIsym parameter) [3]: 729 µM
Kp at 5 µM ([4]; dose 5 µM): 6.44
Kp at 10 µM ([4]; dose 10 µM): 3.44
Kp at 25 µM ([4]; dose 25 µM): 5.97
Kp at 40 µM ([4]; dose 40 µM): 5.7
CIntracellular Fraction (HepG2 cells [5]; dose 0.1 µM): 0 µM
CHepatocyte (HepG2 cells [5]; dose 0.1 µM): 0 µM
CIntracellular Fraction (HepG2 cells [5]; dose 0.5 µM): 0 µM
CHepatocyte (HepG2 cells [5]; dose 0.5 µM): 0 µM
CIntracellular Fraction (HepG2 cells [5]; dose 1 µM): 0 µM
CHepatocyte (HepG2 cells [5]; dose 1 µM): 0 µM
CIntracellular Fraction (HepG2 cells [5]; dose 5 µM): 0.0156 µM
CHepatocyte (HepG2 cells [5]; dose 5 µM): 32.20 µM
CIntracellular Fraction (HepG2 cells [5]; dose 10 µM): 0.0162 µM
CHepatocyte (HepG2 cells [5]; dose 10 µM): 34.40 µM
CIntracellular Fraction (HepG2 cells [5]; dose 25 µM): 0.0629 µM
CHepatocyte (HepG2 cells [5]; dose 25 µM): 149.2 µM
CIntracellular Fraction (HepG2 cells [5]; dose 40 µM): 0.0937 µM
CHepatocyte (HepG2 cells [5]; dose 40 µM): 227.9 µM
Ki (human BSEP [6]): 31.6 µM
Coefficient for ETC inhibition (DILIsym parameter) used in previously published research [7]: 1.09 mM
Simulated ALT >3X ULN, frequency (simulated individuals): 7.86%
Simulated ALT >3X ULN, frequency (simulated individuals; listed as tolvaptan): 7.86%
Simulated ALT >3X ULN (simulated individuals; 90/30 mg): 18/229
Simulated Hy's Law Cases (simulated individuals; 90/30 mg): Yes
Clinical Hy's Law Cases ([8]; ADPKD): Yes
Clinical ALT >3X ULN, frequency ([8]; treated ADPKD patients): 4.4% and 5.6%
